How the values were obtained:
Format in all cases: in vivo
[1] = test system: monocotylidonous and dicotylidonous weed and crop plants; experiment: Herbicidal post-emergence action (other test plants); conditions: post-emergence method, 80 g/ha
Procedure, shortened: (§1)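 Greenhouse plants in sandy loam sprayed at the one-leaf stage, 2-3 weeks after sowing, with WP-formulated compound at varied rates in 600 l/ha water plus 0.2% wetting agent. Damage scored visually after about three weeks as percent effect versus untreated controls (100% = dead).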

Alopecurus myosuroides [2] = experiment: Herbicidal post-emergence action; conditions: post-emergence method, 80 g/ha
Procedure, shortened: as §1

Setaria viridis [3] = experiment: Herbicidal post-emergence action; conditions: post-emergence method, 80 g/ha
Procedure, shortened: as §1

Echinocloa crus-galli [4] = experiment: Herbicidal post-emergence action; conditions: post-emergence method, 80 g/ha
Procedure, shortened: as §1

Lolium multiflorum [5] = experiment: Herbicidal post-emergence action; conditions: post-emergence method, 80 g/ha
Procedure, shortened: as §1

Alopecurus myosuroides [6] = experiment: Herbicidal pre-emergence action; conditions: pre-emergence method, 80 g/ha, greenhouse, visual assessment vs untreated controls
Procedure, shortened: (§2)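 Seeds sown in sandy loam and covered with soil; WP-formulated compounds applied as aqueous suspension (600 l/ha water, 0.2% wetting agent) to the soil surface at various rates. Greenhouse-grown; emergence damage scored visually after three weeks versus untreated controls (0% = like control, 100% = plants dead).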

Setaria viridis [7] = experiment: Herbicidal pre-emergence action; conditions: pre-emergence method, 80 g/ha, greenhouse, visual assessment vs untreated controls
Procedure, shortened: as §2

Echinocloa crus-galli [8] = experiment: Herbicidal pre-emergence action; conditions: pre-emergence method, 80 g/ha, greenhouse, visual assessment vs untreated controls
Procedure, shortened: as §2

Lolium multiflorum [9] = experiment: Herbicidal pre-emergence action; conditions: pre-emergence method, 80 g/ha, greenhouse, visual assessment vs untreated controls
Procedure, shortened: as §2

[10] = test system: monocotylidonous and dicotylidonous weed and crop plants; experiment: Herbicidal pre-emergence action (other test plants); conditions: pre-emergence method, 80 g/ha, greenhouse, visual assessment vs untreated controls
Procedure, shortened: as §2

| SMILES | herbicidal effect against AVEFA (Avena fatua) [1] | herbicidal effect against ALOMY (Alopecurus myosuroides) (Alopecurus myosuroides [2]) | herbicidal effect against SETVI (Setaria viridis) (Setaria viridis [3]) | herbicidal effect against ECHCG (Echinochloa crus-galli) (Echinocloa crus-galli [4]) | herbicidal effect against LOLMU (Lolium multiflorum) (Lolium multiflorum [5]) | herbicidal effect ALOMY (Alopecurus myosuroides [6]) | herbicidal effect SETVI (Setaria viridis [7]) | herbicidal effect ECHCG (Echinocloa crus-galli [8]) | herbicidal effect LOLMU (Lolium multiflorum [9]) | herbicidal effect AVEFA [10] |
| --- | --- | --- | --- | --- | --- | --- | --- | --- | --- | --- |
| CCc1cc(C)cc(CC)c1C1=C(OC(=O)C(C)C)C2CC3(CC2C1=O)OCC=CCO3 (stereo not drawn) [I-b-12] | 100% | 90% | 100% | 100% | 100% | 100% | 90% | 100% | 100% | 70% |
| CCc1cc(C)cc(CC)c1C1=C(OC(=O)C(C)C)C2CC3(CC2C1=O)OCC(C)CO3 (stereo not drawn) [I-b-14] | 100% | 100% | 100% | 100% | 100% | 100% | 100% | 100% | 100% | 70% |
| CCOC1COC2(CC3C(=O)C(c4c(CC)cc(C)cc4CC)=C(OC(=O)C(C)C)C3C2)OC1 (stereo not drawn) [I-b-16] | 90% | 100% | 100% | 100% | 100% | 100% | 100% | 100% | 100% | 80% |
| CCc1cc(C)cc(CC)c1C1=C(OC(=O)C(C)C)C2CC3(CC2C1=O)OCC(OCc1ccccc1)CO3 (stereo not drawn) [I-b-17] | 90% | 90% | 90% | 100% | 100% | 90% | 90% | 100% | 100% | 80% |
| CCc1cc(C)cc(CC)c1C1=C(OC(C)=O)C2CC3(CC2C1=O)OCCO3 (stereo not drawn) [I-b-18] | 100% | 100% | 100% | 100% | 100% | 100% | 70% | 80% | 100% | 70% |
| CCc1cc(C)cc(CC)c1C1=C(OC(=O)C(C)(C)C)C2CC3(CC2C1=O)OCCCO3 (stereo not drawn) [I-b-22] | 100% | 100% | 100% | 100% | 100% | 100% | 80% | 100% | 100% | 70% |
| CCc1cc(C)cc(CC)c1C1=C(OC(C)=O)C2CC3(CC2C1=O)OCCCO3 (stereo not drawn) [I-b-23] | 100% | 100% | 100% | 100% | 100% | 90% | 50% | 100% | 100% | 70% |
| CCC(=O)OC1=C(c2c(CC)cc(C)cc2CC)C(=O)C2CC3(CC12)OCCCO3 (stereo not drawn) [I-b-24] | 100% | 100% | 100% | 100% | 100% | 70% | 40% | 100% | 100% | 70% |
| CCc1cc(C)cc(CC)c1C1=C(OC(=O)C(C)(C)CCl)C2CC3(CC2C1=O)OCCCO3 (stereo not drawn) [I-b-25] | 100% | 100% | 100% | 100% | 100% | 90% | 60% | 100% | 100% | 70% |

Reference: patent publication US8367873B2, “Phenyl-substituted bicyclooctane-1,3-dione derivatives” (Bayer Cropscience AG, priority 2008, dated 2013)
